The text below walks through data of patent US12239641B2, “Methods of treating or preventing fibrosis in non-alcoholic fatty liver disease” (priority 2018, dated 2025).

Data set [1] has as its system rat model of NASH induced by a high fat high cholesterol (HFHC) diet. Put plainly: Rat model of NASH induced by HFHC diet: liver weight, fat, AST, histology scores, fibrosis. It counts as in vivo, Sprague Dawley rats. From the text: (§1) Animals were studied after 16 weeks of feeding.
Data set [2] has as its system cytokines and chemokines (Cx3CL1, CxCL5, CCL3). Put plainly: Cytokines and chemokines (ELISA) in HFHC NASH rats. It counts as in vivo, Sprague Dawley rats.
Description: as §1
(ELISA stands for enzyme-linked immunosorbent assay.)

The subject of data set [3] is Genes involved in fibrogenesis (TIMP-1 and Collal), MMP2. Put plainly: Expression of genes involved in fibrogenesis in HFHC NASH rats. It counts as in vivo, Sprague Dawley rats.
Description: as §1

The target of data set [4] is T1, ADRA2a (Homo sapiens, UniProt P08913).
T1 sequence (P08913 1-465): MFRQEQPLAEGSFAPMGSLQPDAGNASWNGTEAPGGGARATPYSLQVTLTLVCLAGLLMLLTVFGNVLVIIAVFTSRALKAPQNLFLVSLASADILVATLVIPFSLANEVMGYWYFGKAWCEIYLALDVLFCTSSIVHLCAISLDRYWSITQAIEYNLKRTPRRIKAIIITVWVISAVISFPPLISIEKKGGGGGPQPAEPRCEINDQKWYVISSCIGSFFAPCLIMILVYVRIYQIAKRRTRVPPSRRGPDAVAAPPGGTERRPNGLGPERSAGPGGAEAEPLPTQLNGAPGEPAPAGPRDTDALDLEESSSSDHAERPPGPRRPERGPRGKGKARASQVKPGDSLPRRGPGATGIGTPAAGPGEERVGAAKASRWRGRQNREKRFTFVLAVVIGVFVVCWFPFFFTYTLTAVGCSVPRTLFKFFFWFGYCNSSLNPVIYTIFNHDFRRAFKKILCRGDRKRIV
Conditions: some affinity for all; cited from earlier work.

For data set [5], the system named is working memory. Put plainly: Working memory test in HFHC NASH rats. It counts as in vivo, Sprague Dawley rats. As to conditions: HFHC diet 16 weeks, Yohimbine for the last 8 weeks vs placebo.
Description: as §1
Working memory and behavioural testing was through standard psychometric assessments before termination, such as application of the Barnes Maze.

For data set [6], the system named is ADRA2A receptors. Conditions: HFHC+YoHCl vs HFHC.
Description: Sprague Dawley rats (240-300 g) were randomly divided into 3 groups (Standard diet, HFHC+placebo, HFHC+Yohimbine). The animals were kept under controlled temperature (20±2° C.) and light (lights on at 08:00-20:00). The standard diet was composed of the following energy sources: 67 g carbohydrates (70 kcal %), 4 g fat (10 kcal %), and 19 g protein (20 kcal %) per 100 g diet. The HFC diet contained 19 g carbohydrates (15 kcal %), 39 g fat (65 kcal %), 2 g cholesterol, and 27 g protein (20 kcal %) per 100 g diet. The study was performed in accordance with local and national guidelines for animal welfare and approved by the institutional Animal Ethics Committee.
Animals were studied after 16 weeks of feeding. Animals in the HFHC group were randomised after 8 weeks of feeding to either treatment with placebo or Yohimbine, in addition to their ongoing diets. Yohimbine Hydrochloride (Product Number Y3125, Sigma-Aldrich, Dorset, UK), an ADRA2A antagonist, was administered in the drinking water at a dosage of 0.4 mg/kg rat/day. In the placebo treated group, an equivalent volume of water was administered. The rats were weighed daily and the Yohimbine treatment weight adjusted.
At the end of 16 weeks of feeding, rats were exsanguinated and the blood and tissues harvested and stored at −80 C for subsequent analyses. […]
Data set [7] concerns noradrenaline (Norepinephrine—NE). Put plainly: Noradrenaline levels (HPLC) in HFHC NASH rats. It counts as in vivo, Sprague Dawley rats. As to conditions: HFHC+YoHCl vs HFHC.
Description: as §1

The conditions of data set [8]: compared with Yohimbine; cited from earlier work.
The subject of data set [9] is Primary human hepatic stellate cells. Put plainly: 3D collagen gel contraction of hepatic stellate cells. It counts as cell-based. As to conditions: 6 hours. From the text:
Primary human HSCs (huHSC) were isolated from wedge sections of liver tissue obtained from patients with no history of liver disease undergoing liver resection for colorectal metastasis in the Royal Free Hospital, with local Tissue act for patient benefit ethics approval. All the participants provided written informed consent in accordance with the Helsinki Declaration.
Cells isolation in brief: 10 g of total human liver tissue was digested with 0.01% Collagenase, 0.05% Pronase and 0.001% DNase I without performing perfusion. The homogenate was filtered through a 100 µm cell strainer (BD Biosciences) and the flow-through was centrifuged at 50×g for 2 minutes at 4° C. After washing the supernatant, gradient centrifugation was performed at 1400×g for 17 minutes at 4° C. using an 11.5% Optiprep gradient (Sigma-Aldrich Company Ltd.). Finally, the interface was collected and washed. […]
Human and rat HSCs were cultured within 3D collagen gels (Fibroblast-populated collagen lattices; FPCL). […] Gel areas were measured using ImageJ v1.49 software (US National Institutes of Health, Bethesda MD, USA, http://imagej.nih.gov/ij/).

Setting [10] is: H&E liver, HFHC+YoHCl (n=9) vs HFHC (n=6), 8 weeks treatment.
[11] abbreviates: HFHC model, Yohimbine therapy for 8 weeks, p=0.03.

Entries after “also recorded” stand apart in the source; their conditions may differ.

On to `COC(=O)[C@@H]1[C@H]2C[C@H]3c4[nH]c5ccccc5c4CCN3C[C@@H]2CC[C@@H]1O` [Yohimbine], for which, in data set [1] (setting [10]), the hepatic inflammation score result was “significant reduction”, the hepatic steatosis score entry is “significant reduction”, the hepatocyte ballooning score entry is on record as “significant reduction” and the “non-alcoholic fatty liver disease (NAFLD) activity score (NAS)” value is listed as “significant reduction”. Besides, the “fibrosis (Picro sirius red stained liver)” value in [1] (HFHC NASH rats with Yohimbine vs without treatment) is given as “visually decreased”. The “Collagen proportionate area (CPA)” value in data set [1] (HFHC NASH rats with Yohimbine vs without treatment, n=6 per group, HFHCD vs HFHCD_YoHCl p=0.016) was “reduced”. In data set [1] (HFHC diet 16 wks, Yohimbine for last 8 weeks), the liver fat result is listed as “reduced”. In addition, in data set [1] (HFHC diet 16 wks, Yohimbine for last 8 weeks, 0.4 mg/kg rat/day in drinking water, HFHCD vs HFHCD_YoHCl p=0.014), the Liver-body weight ratio entry was “restored”. The “AST (liver injury)” value in data set [1] (HFHC rats after 8 weeks of Yohimbine therapy, HFHCD vs HFHCD_YoHCl p=0.007) was “decreased”. Moreover, in [2] (HFHC+YoHCl (8 weeks) vs HFHC), the CCL3 protein expression entry is “decrease markedly”, the Cx3CL1 protein expression entry is reported as “decrease markedly” and the CxCL5 protein expression entry is listed as “decrease markedly”. For the same compound, in [2] (HFHCD_YoHCl vs HFHCD, 16 weeks diet), the “cytokines and chemokines (liver and systemic inflammation)” value was “reduced liver and systemic inflammation”. Further, in [3] (setting [11]), the Collal gene expression entry is given as “significantly (p=0.03 for both) reduced” and the TIMP-1 gene expression result is “significantly (p=0.03 for both) reduced”. Moreover, the MMP2 expression result in data set [3] (HFHC rats, Yohimbine hydrochloride therapy) was “reduced”. For the same compound, the “selectivity among ADRA2 subtypes” value in data set [4] was “most selective for ADRA2a”. In addition, in data set [5], the working memory result is reported as “significantly improved; also recorded: improves”. For the same compound, the “ADRA2A receptor expression in liver tissue” value in data set [6] is on record as “does not significantly reduce”. Also, the “Levels of noradrenaline (NE)” value in data set [7] is recorded as “further but non-statistical increase”.
As to `COC(=O)[C@H]1[C@H]2C[C@H]3c4[nH]c5ccccc5c4CCN3C[C@H]2CC[C@@H]1O` [Rauwolscine], in data set [4], the “selectivity among ADRA2 subtypes” value is given as “most selective for ADRA2a”.
`COC(=O)[C@@H]1[C@H]2C[C@H]3c4[nH]c5cc(O)ccc5c4CCN3C[C@@H]2CC[C@@H]1O` [11-OH Yohimbine]: in [8], the half life result is listed as “longer half life” and the oral bioavailability result is reported as “better oral bioavailability”.
With `CC1c2ccccc2CN1CC1=NCCN1` (stereo not shown) [BRL44408], the “contraction in a 3D collagen gel” value in data set [9] (5 uM Guanfacine and 5 uM BRL44408 vs guanfacine alone) was “less contraction”.
With `N=C(N)NC(=O)Cc1c(Cl)cccc1Cl` [Guanfacine], the “contraction in a 3D collagen gel” value in data set [9] (5 uM Guanfacine vs serum free medium) is given as “significantly greater contraction”.
